Reference: patent US20250000043A1, “NON-TRANSGENIC SUNFLOWER PLANTS HAVING INCREASED TOLERANCE TO HERBICIDES” (BASF Agricultural Solutions Seed US LLC, priority 2021, published 2025)

Experiments:
[1] = system: progeny of mutant lead LIH16358 (PPO2_F383I); assay: Greenhouse re-assessment of saflufenacil tolerance, mutant progeny (Example 3); type: in vivo, Helianthus annuus
Description: (§1) As it is not uncommon that in forward field mutant screening for herbicide tolerance ‘false’ tolerant plants are selected, the field candidates were reassessed in the greenhouse. Field harvested seeds of the mutant lead LIH16358 were planted in the greenhouse on Nov. 26, 2019, in Limburgerhof, Germany. The greenhouse trial had the objective to verify if the progeny of mutant lead LIH16358 would survive treatment with saflufenacil. Seeds of the susceptible wild type (HA452) line were planted in the same greenhouse trial as the susceptible reference. Saflufenacil was sprayed at 2.5 g a.i./ha on Dec. 10, 2019. The 2.5 g a.i./ha of saflufenacil corresponds to 12.5 g a.i./ha in field conditions. The final phytotoxicity evaluation in the treated plants was done on Dec. 24, 2019.
(§2) The tolerant progeny individuals of mutant lead LIH16358 produced seeds, which were planted in a follow up greenhouse trial on May 19, 2020. The plants were sprayed with 2.0 g a.i./ha of saflufenacil on Jun. 3, 2020.

PPO2_F383I mutant lines = assay: Advanced field trial with saflufenacil, Utrera 2021 (Example 4); type: in vivo, Helianthus annuus
Procedure: M6 seed of eleven lines all originating from the nine plants carrying the PPO2_F383I mutation but with a different pedigree were assessed in an advanced field trial. The advanced field trial was manually planted in Utrera, Spain, on May 3, 2021. One row per mutant entry per plot was considered, and thirty-two seeds were planted per mutant entry per row per plot. Saflufenacil was applied in four increasing rates (0×: 0 g a.i/ha, 0.5×=12.5 g a.i./ha; 1×=25 g a.i./ha and 2×=50 g a.i./ha) when plants were at the BBCH12-14 growth stage. Saflufenacil application took place on Jul. 26, 2021. The field trial design was a strip-block design with four replications.
Phytotoxicity evaluations were done at 2, 5, 12, 19 and 26 days after treatment (DAT) with saflufenacil. As discussed previously, phytotoxicity of the mutant entries and wild type control were scored in each of the evaluation days after saflufenacil treatment. Eleven mutant lines were tested. The field tested one mutant line per row 32 seeds per row, for each saflufenacil rate treatment and replication, this means every plot was made of a single row, so the plot was the row for each mutant line. The phytotoxicity % score was given for each row in comparison to the untreated row of the same mutant line (control), meaning all 11 mutant lines were assessed for phytotoxicity % in all treatments and replications. Phytotoxicity was visually recorded at each evaluation time after saflufenacil application on a per plot basis based on the rating scale table (below).
To better reflect the tolerance of surviving plants, data were expressed in percent herbicide tolerance efficacy by using the formula below:
where: • 0% means no tolerance • 100% means full tolerance

[2] = system: PPO2_F420I Mutant sunflower; assay: Field PPO cross-tolerance trial, mutant (Example 8); type: in vivo; settings: for Phytotoxicity (%) PPO2_F420I Mutant 6DAT / Phytotoxicity (%) PPO2_F420I Mutant 11DAT / Phytotoxicity (%) PPO2_F420I Mutant 14DAT: MSO 1% v/v
Procedure: (§3) A field trial was carried out to assess PPO cross-tolerance in non-introgressed, selfed, homozygous PPO2_F4201 mutants, as well as to assess tolerance differences using increasing rates of herbicides listed in Table 5. The field trial was done in Utrera, Spain, in September of 2021.
(§4) Herbicide treatments (Table 5) were applied in the field when plants had the BBCH12-14 growth stage (2-4 leaves). The field trial design was the randomized complete block design, and 1 replication was considered due to limitation in seed availability. Two entries were used in the field trial, the WT line and the PPO2_F4201 mutant. The experimental plot consisted of 1 entry per plot and 1 row per entry.
(§5) Phytotoxicity of mutant and WT entries was recorded over time, at 6, 11 and 14 DAT, where 100% phytotoxicity indicates complete control (dead plants), and 0% phytotoxicity indicates no control or alive plants without any herbicide injury.

[3] = system: wild type (WT) sunflower line (RHA473); assay: Greenhouse PPO cross-tolerance trial, wild type (Example 7); type: in vivo
Procedure: (§6) In August of 2021, a greenhouse herbicide trial was carried out in Zwijnaarde, Belgium. A homozygous PPO2_F4201 sunflower seed lot (HA452-M), and a wild type (WT) sunflower line (RHA473) were used in the greenhouse trial. Sixteen homozygous PPO2_F4201 mutant plants and six WT plants were sown and treated with each herbicide. […]

[4] = molecular target: PPO2_F383I mutant PPO2 enzyme (Helianthus annuus, UniProt A0A251TWC2, F383I); assay: In vitro PPO inhibition assay, mutant enzyme (Example 5); type: biochemical, sunflower
Description: (§7) To test whether the PPO2_F383I is the main cause of the observed saflufenacil tolerance, we used an in vitro to compare the inhibition potency (IC50) of different PPO inhibiting herbicides between wild-type and mutant PPO2 enzyme. The in vitro assay assesses the oxidation of protoporphyrinogen IX to protoporphyrin IX, catalyzed by the PPO enzyme. Both the wild type and mutant PPO2 proteins were heterologously expressed in E. coli and purified. Purified protein was mixed with different concentrations of the herbicide ranging from 10^−5M to 10^−11M and protein activity was measured. Protein activity is defined as the fluorescence per minute that the reaction generates. In the reaction, the purified PPO enzyme is mixed with substrate protoporphyrinogen IX and the herbicide. The product of the reaction is excited at 405 nm and produces a fluorescence at 630 nm which we detect. IC50 (in Mol) and tolerance factor were calculated.

[5] = system: PPO2_F383I mutant PPO2 enzyme; assay: as above; type: biochemical, sunflower; settings: PPO2_F383I versus wild type IC50
Description: as §7

[6] = system: susceptible wild type (HA452) line; assay: Greenhouse re-assessment of saflufenacil tolerance, wild type reference (Example 3); type: in vivo, Helianthus annuus
Description: as §1, §2

[7] = system: Wild Type (WT) sunflower line; assay: Field PPO cross-tolerance trial, wild type (Example 8); type: in vivo; settings: for Phytotoxicity (%) Wild Type (WT) 6DAT / Phytotoxicity (%) Wild Type (WT) 11DAT / Phytotoxicity (%) Wild Type (WT) 14DAT: MSO 1% v/v
Procedure: as §3, §4, §5

[8] = system: homozygous PPO2_F4201 sunflower (HA452-M); assay: Greenhouse PPO cross-tolerance trial, mutant (Example 7); type: in vivo; settings: for recovery of PPO2_F4201 plants after early phytotoxicity at 4 DAT: 10 DAT; for survival of PPO2_F4201 plants: all rates tested, MSO 1% v/v
Procedure: as §6

wild-type PPO2 enzyme = wild-type PPO2 enzyme (Helianthus annuus, UniProt A0A251TWC2); assay: In vitro PPO inhibition assay, wild type enzyme (Example 5); type: biochemical, sunflower
Description: as §7

[9] = system: conventional sunflowers (Edison, ES Coloris Clearfield, inbred line HA452); assay: Field trials of sunflower sensitivity to saflufenacil (Example 1); type: in vivo, Helianthus annuus
Procedure: Research was conducted to evaluate the sensitivity of sunflower to the herbicide comprising the active ingredient (AI) saflufenacil (Trade name: Kixor™). The herbicide was applied in 2 field trials at different rates ranging from 0.91 g to 14 g a.i./ha (with 0.5-1% MSO-methylated seed oil-adjuvant) to 2 commercial sunflower varieties [a) a conventional (non-herbicide tolerant) sunflower (“Edison”) which is a linoleic oil-type sunflower, and b) a herbicide tolerant sunflower (“ES Coloris Clearfield which is a linoleic oil-type sunflower] and a public inbred line HA452, from the USDA (United States Department of Agriculture) National Plant Germplasm System (NPGS), deposited under Accession No. PI 642771. The treated plants were at the 2-to-4 leaf-stage (BBCH12-14). Trials were set up in a randomized complete block design with 3 replications and rated for herbicide phytotoxicity (percentage damage) 3, 7, 10 and 14 days after treatment (see also Example 4 for more details). Herbicide phytotoxicity ranges from 0% phytotoxicity (full tolerance) to 100% phytotoxicity (full susceptibility or absence of tolerance).
Full control of all sunflower materials was even observed at the first phytotoxicity evaluation time point, 3 days after treatment (DAT) with saflufenacil (results not shown).
The second field trial (trial 2) compared the adjuvant MSO at two concentrations: 1% v/v, concentration used by the farmer and 0.5%, half the concentration (FIG. 2). With the MSO concentration of 0.5% v/v, which lowers the general herbicidal efficacy of saflufenacil in weeds, control of all sunflower materials was around 80% at the lowest rate of saflufenacil (0.91 g a.i./ha) and 100% at 1.75 g a.i./ha and higher (FIG. 2).

Sequence of PPO2_F383I mutant PPO2 enzyme (Helianthus annuus, UniProt A0A251TWC2, F383I) (A0A251TWC2 entry or part of it F383I): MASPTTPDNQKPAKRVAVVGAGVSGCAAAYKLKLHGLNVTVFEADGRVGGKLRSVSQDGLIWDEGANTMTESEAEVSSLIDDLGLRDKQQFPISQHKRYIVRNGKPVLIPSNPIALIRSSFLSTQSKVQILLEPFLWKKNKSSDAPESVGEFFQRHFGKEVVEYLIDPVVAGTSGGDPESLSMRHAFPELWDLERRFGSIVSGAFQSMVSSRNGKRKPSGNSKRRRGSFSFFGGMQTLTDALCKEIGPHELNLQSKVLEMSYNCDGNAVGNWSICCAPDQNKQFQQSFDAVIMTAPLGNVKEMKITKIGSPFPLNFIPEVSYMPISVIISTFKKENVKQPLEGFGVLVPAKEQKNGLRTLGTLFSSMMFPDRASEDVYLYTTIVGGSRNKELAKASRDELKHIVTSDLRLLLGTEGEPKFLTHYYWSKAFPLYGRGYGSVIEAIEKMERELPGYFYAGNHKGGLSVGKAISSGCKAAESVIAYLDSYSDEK
Sequence of wild-type PPO2 enzyme (A0A251TWC2 entry or part of it): as the sequence (A0A251TWC2 entry or part of it F383I) above, with I383F counted along it

SMILES: CC(C)N(C)S(=O)(=O)NC(=O)c1cc(-n2c(=O)cc(C(F)(F)F)n(C)c2=O)c(F)cc1Cl [Saflufenacil]
- phytotoxicity of individuals ([1]; 2.0 g a.i./ha, second generation progenies, 14 DAT): ≥ 25%
- survival after treatment ([1]; 2.5 g a.i./ha, first generation progeny): survived saflufenacil treatment
- survival and seed production (PPO2_F383I mutant lines; 50 g a.i./ha in the field): survive and produce seeds
- impact on days to 50% flowering versus untreated (PPO2_F383I mutant lines; across entries and saflufenacil rates): ≤ 5 days
- tolerance efficacy (%) (PPO2_F383I mutant lines; all eleven mutant lines, all rates (12.5, 25, 50 g a.i./ha)): high tolerance efficacy
- plant recovery (PPO2_F383I mutant lines; all rates including 2x (50 g a.i./ha)): start to significantly recover at 19 DAT
- phytotoxicity at peak, compared to untreated controls (PPO2_F383I mutant lines; eleven mutant entries, field, 12.5, 25 and 50 g a.i./ha): higher than 15%
- plant height, treated versus untreated (PPO2_F383I mutant lines; when flowering was completed, 73 DAT): untreated plants showed a greater plant height compared to treated plants
- Phytotoxicity (%) PPO2_F420I Mutant 6DAT ([2]; 3.125 g a.i./ha): 40%
- Phytotoxicity (%) PPO2_F420I Mutant 11DAT ([2]; 3.125 g a.i./ha): 35%
- Phytotoxicity (%) PPO2_F420I Mutant 14DAT ([2]; 3.125 g a.i./ha): 35%
- Phytotoxicity (%) PPO2_F420I Mutant 6DAT ([2]; 6.25 g a.i./ha): 45%
- Phytotoxicity (%) PPO2_F420I Mutant 11DAT ([2]; 6.25 g a.i./ha): 40%
- Phytotoxicity (%) PPO2_F420I Mutant 14DAT ([2]; 6.25 g a.i./ha): 40%
- survival of the PPO2_F4201 mutant ([2]; all rates of saflufenacil): survives
- maximum phytotoxicity in the PPO2_F4201 mutants ([2]; at 11 and 14 DAT): 40%
- kill of WT plants ([3]; dose as low as 1.25 g/ha, greenhouse, MSO 1% v/v): all killed
- IC50 ([4]; IC50 for PPO2_F383I): 4.36 µM
- IC50 ([4]; PPO2_F383I IC50, purified enzyme expressed in E. coli, herbicide 10^-5 M to 10^-11 M): 4.23 µM
- Tolerance factor [5]: 2897
- phytotoxicity ([6]; 2.0 g a.i./ha, 14 DAT): 100%
- control of wild type reference plants ([6]; 2.5 g a.i./ha): completely controlled and dead
- Phytotoxicity (%) Wild Type (WT) 6DAT ([7]; 3.125 g a.i./ha): 100%
- Phytotoxicity (%) Wild Type (WT) 11DAT ([7]; 3.125 g a.i./ha): 100%
- Phytotoxicity (%) Wild Type (WT) 14DAT ([7]; 3.125 g a.i./ha): 100%
- Phytotoxicity (%) Wild Type (WT) 6DAT ([7]; 6.25 g a.i./ha): 100%
- Phytotoxicity (%) Wild Type (WT) 11DAT ([7]; 6.25 g a.i./ha): 100%
- Phytotoxicity (%) Wild Type (WT) 14DAT ([7]; 6.25 g a.i./ha): 100%
- phytotoxicity in the WT background ([7]; saflufenacil 3.125 and 6.25 g a.i./ha): 100%
- recovery of PPO2_F4201 plants after early phytotoxicity at 4 DAT [8]: consistent survival and recovery
- survival of PPO2_F4201 plants [8]: survived at all rates
- IC50 (wild-type PPO2 enzyme): 0.00146 µM
- phytotoxicity ([9]; 0.91 g a.i./ha, 1% v/v MSO): 100%
- control of sunflower materials ([9]; 1% MSO v/v, all applied rates (0.91 to 14 g a.i./ha), field trial 2): total control
- control of all sunflower materials ([9]; 1.75 g a.i./ha and higher, MSO 0.5% v/v, field trial 2): 100%
- control of all sunflower materials ([9]; field trial 1, 3 days after treatment): Full control
- control of all three sunflower materials ([9]; field trial 1, lowest saflufenacil rate, after 14 days): completed controlled

SMILES: C#CCN1C(=O)COc2cc(F)c(N3C(=O)C4=C(CCCC4)C3=O)cc21 [Flumioxazin]
- Phytotoxicity (%) PPO2_F420I Mutant 6DAT ([2]; 45 g a.i./ha): 20%
- Phytotoxicity (%) PPO2_F420I Mutant 11DAT ([2]; 45 g a.i./ha): 20%
- Phytotoxicity (%) PPO2_F420I Mutant 14DAT ([2]; 45 g a.i./ha): 10%
- Phytotoxicity (%) PPO2_F420I Mutant 6DAT ([2]; 55 g a.i./ha): 30%
- Phytotoxicity (%) PPO2_F420I Mutant 11DAT ([2]; 55 g a.i./ha): 25%
- Phytotoxicity (%) PPO2_F420I Mutant 14DAT ([2]; 55 g a.i./ha): 15%
- Phytotoxicity (%) PPO2_F420I Mutant 6DAT ([2]; 65 g a.i./ha): 30%
- Phytotoxicity (%) PPO2_F420I Mutant 11DAT ([2]; 65 g a.i./ha): 30%
- Phytotoxicity (%) PPO2_F420I Mutant 14DAT ([2]; 65 g a.i./ha): 20%
- surviving WT plants ([3]; 4 g/ha, 10 DAT): one
- phytotoxicity score of WT plants ([3]; dose as low as 4 g/ha, greenhouse): 90-100%
- Phytotoxicity (%) Wild Type (WT) 6DAT ([7]; 45 g a.i./ha): 80%
- Phytotoxicity (%) Wild Type (WT) 11DAT ([7]; 45 g a.i./ha): 75%
- Phytotoxicity (%) Wild Type (WT) 14DAT ([7]; 45 g a.i./ha): 75%
- Phytotoxicity (%) Wild Type (WT) 6DAT ([7]; 55 g a.i./ha): 80%
- Phytotoxicity (%) Wild Type (WT) 11DAT ([7]; 55 g a.i./ha): 70%
- Phytotoxicity (%) Wild Type (WT) 14DAT ([7]; 55 g a.i./ha): 70%
- Phytotoxicity (%) Wild Type (WT) 6DAT ([7]; 65 g a.i./ha): 85%
- Phytotoxicity (%) Wild Type (WT) 11DAT ([7]; 65 g a.i./ha): 80%
- Phytotoxicity (%) Wild Type (WT) 14DAT ([7]; 65 g a.i./ha): 80%
- WT control level ([7]; across flumioxazin rates (45, 55, 65 g a.i./ha)): 75-80%
- recovery of PPO2_F4201 plants after early phytotoxicity at 4 DAT [8]: consistent survival and recovery
- survival of PPO2_F4201 plants [8]: survived at all rates
